The experiment deals with P. falciparum 3D7 growth, pLDH absorbance. Nature of the experiment: blood-stage malaria parasite growth potency – strain 3D7, dose response (AID 2305).
As for `Oc1cc(-c2nc(-c3ccccc3)[nH]c2-c2ccncc2)ccc1Cl`, the IC50 worked out at 810 nM.

In turn, `CCOC(=O)c1nc2ccc(SC3CCCCC3)cn2c1Br` gave a 50% inhibitory concentration (IC50) of 1060 nM. With `Cc1cc(N(C)C)nc(Nc2ccc(NC(=O)c3ccccc3F)cc2)n1`, the IC50 is 1160 nM. The figure for `N#Cc1ccc(C(=O)NC2CCN(CCCCCNC(=O)/C=C/c3ccc(Cl)c(Cl)c3)CC2)cc1` is 840 nM.

For the compound `CCN(CC)CCN1C(=O)c2oc3ccc(F)cc3c(=O)c2C1c1cccc(Cl)c1` (stereo not drawn), the IC50 was 530 nM. Consider `O=C(Nc1ccc2c(c1)CCN2C1CCN(Cc2cc(F)cc(F)c2F)C1)c1ccco1` (stereo not drawn), for which the IC50 is 590 nM. In the case of `CC(C)c1ccc(S(=O)(=O)N(c2ccc3c(c2)OCO3)C2CCN(Cc3ccccc3)C2)cc1` (stereo not drawn), the IC50 came out at 350 nM. With `Cc1cc(NC(=O)Nc2ccc3nc(C)oc3c2)c2cc(Cl)ccc2n1`, the IC50 amounted to 1120 nM. For `Nc1nc(N)c2c3c(ccc2n1)NCCC3`, the IC50 is 730 nM. On to `COc1cc(OC)c(OC)cc1CN1CCC2(CC1)CN(Cc1ccc(Cl)c(Cl)c1)C(=O)O2`, for which the IC50 is 810 nM. The same measure for `CCN(CC)CCc1ccc2c(=O)cc(CCc3cccc(F)c3F)n(CC(=O)N(C)Cc3ccc(-c4ccc(C(F)(F)F)cc4)cc3)c2c1`: 860 nM; for `N#Cc1cccc(C(=O)Nc2cccc(-c3cccc(CN4CCNCC4)c3)c2)c1`: 950 nM; for `CC(C)(C)CCN1CCC(CNC(=O)c2cc(-c3cccc(C(F)(F)F)c3)cs2)C1` (stereo not drawn): 890 nM. `CCn1c(-c2nonc2N)nc2cnc(Oc3cccc(NC(=O)c4ccc(OCCN5CCCCC5)cc4)c3)cc21`: the IC50 was determined as 1060 nM.

On to `N#Cc1cc(C(=O)c2cc(Br)ccc2O)cn(C2CCCCC2)c1=O`, for which the IC50 is 910 nM. The compound `COc1cccc2c(NN=Cc3cccc(F)c3)ccnc12` showed an IC50 of 930 nM. As to `COc1ccc(CON2C(N)=NC(N)=NC2(C)C)cc1OC`, the half-inhibitory concentration (IC50) worked out at 10 nM. In the case of `O=C(NC1CC1)C1CCN(Cc2cc3ccccc3n2Cc2ccc(Cl)cc2)CC1`, the IC50 amounted to 490 nM. Compound `COc1ccccc1N1CCN(Cc2c(NC(C)=O)sc(C)c2C)CC1` yielded an IC50 of 430 nM. In the case of `O=C(Nc1cc(F)c(F)c(-c2cccnc2)c1)N1CCc2cc(Cl)c(Cl)cc21`, the concentration for half-maximal inhibition (IC50) amounted to 840 nM. The figure for `Nc1cccc(-c2ccc3ccnc(N)c3c2)c1` is 800 nM; for `Oc1ccc(-c2cc(-c3ccc(O)cc3)nc(-c3ccccc3)n2)cc1` it is 780 nM. Turning to `Clc1ccc2c(NCc3ccccc3)ccnc2c1`, the 50% inhibitory concentration (IC50) came out at 340 nM. In turn, `COc1ccc2nccc([C@@H](O)CN3CCC(NCc4ccc(OC)c(NC=O)c4)CC3)c2c1` gave a 50% inhibitory concentration (IC50) of 750 nM. Consider `Cc1nc(N)nc(N)c1C#CC1CCCC1`, for which the IC50 was determined as 770 nM. `Cc1cccc(-c2cccc(CNc3nc(NCCc4ccc(O)cc4)nc(N4CCNCC4)n3)c2)c1` showed an IC50 of 1190 nM.

Compound `COc1cc2ccccc2c(OC)c1CCNCCCCNCCc1c(OC)cc2ccccc2c1OC` returned an IC50 of 890 nM. For `CCc1c(CCNCCCCCCNCCc2ccc3c(c2C)OCO3)ccc2c1OCO2`, the 50% inhibitory concentration (IC50) was determined as 610 nM. The same measure for `CCNCc1cccc(-c2ccc3ccnc(N)c3c2)c1`: 50 nM; for `Cc1ccc(NC(=O)N2CCC(n3c(-c4ccccc4)nc4cccnc43)CC2)cc1F`: 530 nM. Regarding `O=S(=O)(c1ccc(Cl)cc1Cl)N1CCCCC(c2ccc(C(F)(F)F)cc2)=N1`, the IC50 is 160 nM. `O=C(/C=C/c1ccc(Cl)c(Cl)c1)NC1CCC(CN2CCC(Cc3cc4ccccc4[nH]3)CC2)CC1` (stereo not drawn): the half-inhibitory concentration (IC50) is 510 nM.

Take `OC(CNc1ccnc(Nc2cccc(Cl)c2)n1)c1cccc(C(F)(F)F)c1` (stereo not drawn): the IC50 was determined as 510 nM. The figure for `CN1CCN(c2ccnc3ccc(NC(=O)Nc4ccc5ccccc5c4)cc23)CC1` is 80 nM; for `O=C(O)/C=C/c1cccc(F)c1F` it is 100 nM; for `CCn1ccc2c(N3CCCCS3(=O)=O)cc(C(=O)N[C@@H](Cc3ccccc3)[C@H](O)CNC(C)(C)CCCC(C)C)cc21` it is 420 nM.

In turn, `Cc1[nH]c(C)c(-c2ccc(OCc3ccc(OC(F)(F)F)cc3)nc2)c(=O)c1Br` displayed an IC50 of 140 nM.

`COC(=O)c1c(NC(=O)c2cccc(C(F)(F)F)c2)sc2c1CCN(Cc1ccccc1)C2`: the 50% inhibitory concentration (IC50) was determined as 1340 nM. `C=CCn1c(=N)c(C(=O)NC2CCCCC2)cc2c(=O)n3cccc(C)c3nc21` came in with an IC50 of 1040 nM. Consider `CCc1nc(N)nc(N)c1-c1cccc(Cl)c1`, for which the IC50 is 190 nM. `CC(C)c1ccc(C2CCN(CCCCNC(=O)c3ccc(NC(=O)c4ccc(C(F)(F)F)cc4)cc3)CC2)c(O)c1` showed a 50% inhibitory concentration (IC50) of 580 nM. The figure for `COc1ccc2c(c1)CC1CN(CCCCNC(=O)c3ccc(NC(=O)c4cc(Cl)cc(Cl)c4)cc3)CCN1C2` (stereo not drawn) is 770 nM; for `COc1ccc(CN2CCC(NCc3ccc(C(F)(F)F)cc3)CC2)cc1` it is 920 nM; for `Cc1ccc(-c2cc(C(=O)Nc3ccc(S(=O)(=O)N4CC(C)OC(C)C4)cc3)[nH]n2)c(O)c1` (stereo not drawn) it is 610 nM.

`CCC(C)CN1CCN(c2cc(NC(=O)c3cccs3)ccn2)C(C)C1` (stereo not drawn) came in with an IC50 of 1000 nM.

As for `COc1ccc(C(C(=O)NC2CCN(C[C@H](O)c3ccnc4ccc(OC)cc34)CC2)N2CCN(c3ccc([N+](=O)[O-])cc3)CC2)cc1` (stereo partly drawn), the IC50 worked out at 230 nM. Consider `C=CC(=O)Nc1ccc(Cl)cc1C(O)c1ccccc1` (stereo not drawn), for which the IC50 came to 180 nM. `CCOC(=O)N[C@@H]1CN[C@@H](C#Cc2cc3c(Nc4ccc(OCc5cccc(F)c5)c(Cl)c4)ncnc3s2)C1` came in with an IC50 of 1080 nM. With `COc1cccc(CNC(=O)NC2CCN(c3ccnc(Nc4ccc(F)cc4)n3)C2)c1` (stereo not drawn), the IC50 came to 810 nM. Turning to `COC(=O)c1c(C#N)c(OC)cc(O)c1CSC[C@@H](CN1CCCCC1)Nc1nc(-c2ccc([N+](=O)[O-])cc2)cs1`, the IC50 is 1270 nM. Compound `COc1cc(C)nc2ccc(NC(=O)c3cc([N+](=O)[O-])cc([N+](=O)[O-])c3)cc12` showed a concentration for half-maximal inhibition (IC50) of 390 nM. For the compound `Cc1ccc(Cn2ncc(N3CCC(N)CC3)c(Cl)c2=O)cc1NC(=O)Nc1ccc(-c2ccccc2)cc1`, the IC50 was found to be 920 nM. For `CC[C@H](C)CNCc1ccc(OCc2cccc(COc3ccc(CNC[C@@H](C)CC)cc3I)c2)c(I)c1`, the IC50 stood at 400 nM. `O=C1NC(=O)C(c2ccc(Cl)cc2)=C1Nc1cccc(S(=O)(=O)C(F)(F)F)c1`: the concentration for half-maximal inhibition (IC50) stood at 740 nM. `CCn1nc(C(=O)NC2CCOc3ccccc32)c2ccccc2c1=O` (stereo not drawn) gave an IC50 of 1230 nM. Compound `Cc1cc(N(C)CCCN(C)C)nc(Nc2ccc(Cl)cc2)n1` returned an IC50 of 1020 nM. Compound `CCN(CC)S(=O)(=O)n1ncc2c3c(N)nc(N)nc3ccc21` yielded an IC50 of 50 nM. `CC[C@H]1CN2CC[C@H]1C[C@H]2[C@H](O)c1cc(-c2ccc(SC)cc2)nc2ccc(OC)cc12` displayed an IC50 of 60 nM. As to `CN(C)c1c(CNCCCCCCNCc2ccc3ccccc3c2N(C)C)ccc2ccccc12`, the IC50 was found to be 460 nM. On to `CCCCN(CCCC)CCCN(CCCN(CCCC)CCCC)c1cc(C)nc(Nc2ccc3cc(Br)ccc3c2)n1`, for which the IC50 was found to be 320 nM. With `COc1ccc(CN2CCN(CCOC(c3ccccc3)c3ccc(Cl)cc3)CC2)c(O)c1` (stereo not drawn), the IC50 was determined as 710 nM. The figure for `Cc1cc(NN=Cc2ccc(Cl)cc2)c2cc(C(F)(F)F)ccc2n1` is 920 nM.

The compound `Cn1cncc1C(=O)Nc1cccc(-c2ccc(-c3nc4ccccc4[nH]3)cc2)c1` registered an IC50 of 850 nM. `Cc1cc(NCCCN2CCCC2=O)n2c(nc3ccccc32)c1C#N` registered an IC50 of 860 nM. `COc1ccccc1-c1cccc(-c2cccc(NC(=O)c3ccc([N+](=O)[O-])o3)c2)n1` returned an IC50 of 600 nM. The same measure for `Cc1noc(C)c1-c1cccc(CNCc2cccc(-c3ccc(-c4nc5c(C)cccc5[nH]4)cc3)c2)c1`: 190 nM. `Cc1cccc(C(=O)Nc2ccnc(N(C)C3CCN(CC(C)C)CC3)c2)c1` displayed an IC50 of 870 nM. The figure for `O=C(Nc1cccc(-c2cccc(-c3nc4ccc(F)cc4[nH]3)c2)c1)c1cnc[nH]1` is 460 nM; for `Cc1nc2c(-n3cc(Cn4ccnc4)c4ccccc43)ncnc2n1-c1ccc(Cl)cc1Cl` it is 990 nM. Consider `CCOC(=O)c1cn(CC)c2cc(N3CCCCC3)c(F)cc2c1=O`, for which the IC50 turned out to be 130 nM. As to `CCN(CC)CCCN(Cc1ccc(-c2ccc(C(F)(F)F)cc2)cc1)C(=O)Cn1c(SCc2cccc(F)c2F)cc(=O)c2ccccc21`, the half-inhibitory concentration (IC50) amounted to 1320 nM.

As for `Cc1cc2nc(-c3cccc(C(=O)NC4CCN(Cc5ccccc5)CC4)c3)[nH]c2cc1C`, the IC50 amounted to 830 nM.

`CCOc1cc(C)ccc1C1CCN(CCCCNC(=O)c2ccc(-c3ccc(Cl)cn3)cc2)CC1` displayed an IC50 of 1610 nM. For `CS(=O)(=O)Cc1ccc(Nc2ncc(Cl)c(Nc3cccnc3C(N)=O)n2)cc1`, the 50% inhibitory concentration (IC50) worked out at 870 nM.

In the case of `Cc1cc(N[C@@H](CC(C)C)C(=O)NCCOc2ccccc2)nc(NCCc2ccc(F)cc2)n1`, the IC50 is 1290 nM.

Consider `CCCNC[C@@H](O)[C@H](Cc1ccccc1)NC(=O)c1cc2c3c(c1)c(CC)cn3CCS(=O)(=O)N2C`, for which the IC50 came out at 100 nM. `COc1ccc(F)cc1-c1csc(N(c2ccc(F)cc2)C2CCNCC2)n1` came in with an IC50 of 1210 nM. Compound `COC(=O)Cn1c2ccccc2c2c(N)c(C(=O)OC)c(C)nc21` gave an IC50 of 940 nM. The same measure for `CCN(CC)CCCC(C)Nc1c2ccc(Cl)cc2nc2ccc(OC)cc12` (stereo not drawn): 40 nM; for `O=C(Nc1cccc(-c2cccc(-c3nc4ccccc4[nH]3)c2)c1)Nc1ccc2c(c1)OCO2`: 170 nM; for `CCCCNCC(O)COc1ccccc1-c1ccc(N/N=C/c2cccc3ccccc23)nn1` (stereo not drawn): 890 nM.

`COc1cccc(-c2cnc(N)c(-c3nc4ccc(C(F)(F)F)cc4[nH]3)c2)c1` had a 50% inhibitory concentration (IC50) of 650 nM. As for `CC(O)C1CCCCN1C(=O)c1cccc(-c2cccc(-c3nc4ccc(C(F)(F)F)cc4[nH]3)c2)c1` (stereo not drawn), the IC50 came to 280 nM. Turning to `CCC[C@@H]([C@@H](CC1CCCCC1)C(=O)N[C@H](C(=O)Nc1nccs1)C(C)(C)SCCNC(=O)OCc1ccccn1)N(O)C=O`, the IC50 was 160 nM. Turning to `Cc1cccc2c3c([nH]c12)C1(CCN(Cc2ccccc2)CC1)NC(C(=O)NCc1ccccc1)C3` (stereo not drawn), the IC50 turned out to be 1370 nM. The figure for `N#Cc1ccc2c(c1)CCN(CCC1CCC(NC(=O)c3ccc(-c4ccccn4)s3)CC1)CC2` (stereo not drawn) is 1010 nM; for `Cc1nc(-c2nc(NCCc3c(C)noc3C)ncc2-c2ccsc2)sc1C` it is 260 nM.

The compound `O=C(Nc1ccc2c(c1)CCC2)c1cnc(N2CCN(c3ccncc3)CC2)c(Cl)c1` had an IC50 of 1110 nM.

What is called IC50 is the point on the concentration scale where inhibition reaches its midpoint. Lower therefore signals higher potency.

These data come from PubChem BioAssay AID2305 (GlaxoSmithKline (GSK), 2010).
